According to ChEMBL document CHEMBL1122719, “Steroids. 2. Synthesis of C-18 functionalized steroids via the Smith-Hughes route” (J Med Chem, 1984):

What follows are compounds tested against T1, Progesterone receptor (Gallus gallus) (UniProt P07812) (assay: In vitro displacement of progesterone from oviduct progesterone receptor relative to progesterone).
T1 sequence (whole entry): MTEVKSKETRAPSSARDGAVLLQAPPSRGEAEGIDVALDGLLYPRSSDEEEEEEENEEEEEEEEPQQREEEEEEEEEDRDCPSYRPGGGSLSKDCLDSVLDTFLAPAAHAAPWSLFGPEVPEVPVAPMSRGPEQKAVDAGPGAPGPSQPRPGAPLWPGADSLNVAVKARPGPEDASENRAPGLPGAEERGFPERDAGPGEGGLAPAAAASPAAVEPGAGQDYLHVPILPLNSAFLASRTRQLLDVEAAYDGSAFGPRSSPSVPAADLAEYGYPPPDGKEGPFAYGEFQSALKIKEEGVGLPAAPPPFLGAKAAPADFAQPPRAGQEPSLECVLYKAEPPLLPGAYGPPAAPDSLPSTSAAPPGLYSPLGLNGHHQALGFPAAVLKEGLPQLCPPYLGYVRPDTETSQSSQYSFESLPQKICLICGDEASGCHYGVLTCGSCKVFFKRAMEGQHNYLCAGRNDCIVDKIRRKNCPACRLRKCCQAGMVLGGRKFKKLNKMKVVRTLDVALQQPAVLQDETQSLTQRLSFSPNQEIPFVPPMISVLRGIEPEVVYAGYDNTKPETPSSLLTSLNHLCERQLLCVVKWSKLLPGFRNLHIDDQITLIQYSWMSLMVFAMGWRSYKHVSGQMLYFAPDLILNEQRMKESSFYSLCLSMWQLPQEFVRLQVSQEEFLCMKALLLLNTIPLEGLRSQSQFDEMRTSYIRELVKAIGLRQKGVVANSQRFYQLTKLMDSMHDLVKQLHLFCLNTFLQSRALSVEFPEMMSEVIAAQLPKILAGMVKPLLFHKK

First: C#C[C@]1(O)CC[C@H]2[C@@H]3CCC4=CC(=O)CC[C@@H]4[C@H]3CC[C@@]21C [NORETHINDRONE]
Second: C#C[C@@H](O)C12CCCC1C1CCC3=CC(=O)CC[C@@H]3C1CC2 (stereo partly drawn)
The Relative binding affinity of the first is higher: 350% for the first, 0.6% for the second.

Compared with CC(=O)C[C@@]12CCC[C@H]1[C@@H]1CCC3=CC(=O)CC[C@@H]3[C@H]1CC2, CC(=O)OC(C(C)=O)[C@@]12CCC[C@H]1[C@@H]1CCC3=CC(=O)CC[C@@H]3[C@H]1CC2 (stereo partly drawn) is lower in Relative binding affinity: 2% for the first, 0.1% for the second.

Compared with CC(=O)[C@H]1CC[C@H]2[C@@H]3CCC4=CC(=O)CC[C@]4(C)[C@H]3CC[C@]12C, C#C[C@@H](O)C12CCCC1C1CCC3=CC(=O)CC[C@@H]3C1CC2.C#C[C@H](O)C12CCCC1C1CCC3=CC(=O)CC[C@@H]3C1CC2 (stereo partly drawn) is lower in Relative binding affinity: 100% for the first, 3.1% for the second.

Each compound was assayed against Estrogen receptor (Rattus norvegicus, UniProt P06211+Q62986) (assay: Equilibrium dissociation constant for rat uterine estrogen receptor binding [3H]estradiol).
Format: protein assay

First: C#C[C@]1(O)CC[C@H]2[C@@H]3CCC4=CC(=O)CC[C@@H]4[C@H]3CC[C@@]21C [NORETHINDRONE]
Second: OC[C@@]12CCC[C@H]1[C@@H]1CCc3cc(O)ccc3[C@H]1CC2
The Kd of the first is 490-fold lower: 0.63 nM for the first, 310 nM for the second.
